Reference: patent US20140348807A1, “PROCESS FOR THE PREPARATION OF A BIOMASS COMPRISING PLANTARICIN AND USES THEREOF IN MEDICAL FIELD” (GIULIANI S.p.A., priority 2010, published 2014)
Like-named read-outs stand apart in the source and are kept apart here. Ends that are not written are not given here.

Columns and labels:
Caco-2/TC7 cells [1] = experiment: TEER of Caco-2/TC7 cell layer; type: cell-based, Human; conditions: for negative effect of IFN-γ on Caco-2/TC7 TEER with added plantaricin A: IFN-γ 1000 U/ml + plantaricin A 2.5 μg/ml
Procedure: For TEER determination Caco-2/TC7 cells have been inoculated (7.5×10^4 cells/ml) in a 24 well plate and a polyethylene filter (0.4 μm pore). Before the treatment, the cells have been incubated for 21 days at 37° C. Treatments with various preparations have been carried out for 18, 24 and 48 hours. Integrity of the cellular layer therefore has been determined by means of TEER determination.

Caco-2/TC7 cells [2] = experiment: Caco-2/TC7 cell viability, Neutral Red absorption assay; type: cell-based, Human; conditions: for viability of Caco-2/TC7 cells (Neutral Red) vs DMEM negative control: 2.5 μg/ml, incubation 24-72 hours; for negative effect of IFN-γ on Caco-2/TC7 viability under simultaneous plantaricin A treatment: IFN-γ 1000 U/ml + plantaricin A 2.5 μg/ml
Procedure: Human Caco-2/TC7 cells (TC7 clone) have been cultured in Dulbecco medium (DMEM), added with calf serum (10%), not essential amino acids (1%), gentamycin/streptomycin (50 μg/ml), glutamine (2 mM) and 4-2-hydroxyethyl-1-piperazinil-etansulfonic acid (1%) (Di Cagno et al., 2010. Quorum sensing in sourdough Lactobacillus plantarum DC400: induction of plantaricin A (PlnA) under co-cultivation with other lactic acid bacteria and effect of PlnA on bacterial and Caco-2 cells. Proteomics in press). Cell viability has been determined with absorption assay using Neutral Red dye (Balls et al., 1987. Approaches to validation alternative methods in toxicology. In: Goldber A. M. (Ed). N.Y. Academic Press pp. 45-58). After 24-72 hour treatment with various preparations, cells have been washed with PBS buffer and incubated for 4 hours at 37° C. with a Neutral Red solution (33 mg/I). Successively, the cells have been again washed with PBS buffer and treated with lysis solution (50% ethanol in 1% acetic acid containing water). Plate reading has been carried out using Novapath plate reader (Biorad, Hercules, Calif.). Di Cagno et al., 2010. Quorum sensing in sourdough Lactobacillus plantarum DC400: induction of plantaricin A (PlnA) under co-cultivation conditions with other lactic acid bacteria and effect of PlnA on bacterial and Caco-2 cells. Proteomics in press).

[3] = system: human NCTC 2544 keratinocyte cell line; type: cell-based; conditions: 0.1 μg/ml
Procedure: The used cell line is a human NCTC 2544 keratinocyte cell line (Perry, V. P., Sanford, K. K., Evans, V. J., Hyatt, G. W., Earle, W. R., 1957. Establishment of clones of epithelial cells from human skin. J Natl Cancer Inst. 18 (5): 709-717) cultured in sterile flasks, incubated at 37° C. in humid atmosphere at 5% CO2 in MEM (Minimum Essential Medium) culture medium added with 10% bovine calf serum (FBS), 2 mM L-glutamine, 1% not essential amino acids, in the presence of 1% penicillin and streptomycin. Cells grow in vitro adhering to culture plate surface as a monolayer.
The experiment firstly involves the development of confluent cell monolayer. Successively the cut is carried out and the generated “gap” is observed using microscope as cells gradually moving repair the damage.
NCTC 2544 cells are plated and cultured at 37° C., with 5% CO2 for 24 hours.
After 24 hours complete growth medium is replaced with serum free medium to avoid the serum effect on cell proliferation and cells are incubated for further 24 hours at 37° C., 5% CO2.
After 24 hours the cell monolayer is mechanically damaged by mild 200 μl pipette tip brushing tracking a ˜1 mm wide horizontal line. Then the monolayer is washed and after addition of substances to be tested, the plates are incubated at 37° C., 5% CO2 for 72 hours.
the effect of the substances on cell motility is evaluated using phase contrast reverse microscope, acquiring images at various opportunely selected analysis times.
the damage remedy is determined measuring the clear area between the cut two migration fronts at 0, 4, 8, 12, 24, 48, 72 hours after the cut, using an image processing software (Leica application Suite).
After the cut on the cellular monolayer has been carried out using a 200 μl pipette tip and the cells within the gap between two cut lines completely removed, said cells are treated with synthetic and co-culture deriving Plantaricin at the following concentrations: 0.1-1-10 μg/ml. Also positive and negative controls (connectivine at 100 μg/ml) have been duplicate tested.
Images on the same cut area have been acquired at time 0 and after 4, 8, 12, 24, 48 and 72 hours, to monitor the cell migration in the cut area.

[4] = system: Cultured human keratinocytes; experiment: Wound healing assay on cultured human keratinocyte monolayer (Example 2); type: cell-based; conditions: 1 hour incubation with stimulus (Plantaricin A 2.5 μg/ml), then 24 hours
Procedure: Cultured human keratinocytes have been incubated with Plantaricin A (2.5 μg/ml) or Plantaricin A containing biomass for 1 hour.
At the end of the incubation, the cells have been washed and culture medium restored.
The test consists of carrying out a mechanical interruption in the continuity of the cellular monolayer in order the treatment effect in favouring or not the keratinocyte ability to migrate beyond the damage border and therefore “heal the lesion” to be evaluated.
To this end the keratinocyte monolayer, treated as above described, was incubated over aditional 24 hours after stimulus application and then fixed and stained using ematoxylin/eosin staining. Images have been observed with light microscope using 5× objective.
For each image maximum cell migration limits and distance or gap there between have been detected and calculated, respectively (FIG. 9-10).

Row | Substance | negative effect of IFN-γ on Caco-2/TC7 TEER with added plantaricin A (Caco-2/TC7 cells [1]) | viability of Caco-2/TC7 cells (Neutral Red) vs DMEM negative control (Caco-2/TC7 cells [2]) | negative effect of IFN-γ on Caco-2/TC7 viability under simultaneous plantaricin A treatment (Caco-2/TC7 cells [2]) | percentage of migrated cells in comparison to the positive control ([3]; 1st of six time values (4 h)) | percentage of migrated cells in comparison to the positive control ([3]; 2nd of six time values (8 h)) | percentage of migrated cells in comparison to the positive control ([3]; 3rd of six time values (12 h)) | percentage of migrated cells in comparison to the positive control ([3]; 4th of six time values (24 h)) | percentage of migrated cells in comparison to the positive control ([3]; 5th of six time values (48 h)) | percentage of migrated cells in comparison to the positive control ([3]; 6th of six time values (72 h)) | TEER values for Caco-2/TC7 cells (Caco-2/TC7 cells [1]; 2.5 μg/ml, 24 and 48 hours, vs DMEM) | gap between the wound margins vs control cells [4]
1 | KSSAYSLQMGATAIKQVKKLFKKWGW [chemically synthesized plantaricin A] | eliminated also in this case the negative effects | Same result | completely eliminated | 158.30% | 115.15% | 124.32% | 141.82% | 141.91% | 128.51% |  | 
2 | KSSAYSLQMGATAIKQVKKLFKKWGW [purified plantaricin A] | eliminated also in this case the negative effects | remarkably increased | completely eliminated |  |  |  |  |  |  | remarkable increase | 
3 | hyaluronic acid |  |  |  |  |  |  |  |  |  |  | lesion gap is narrower than for not treated cells
